Structures are written as SMILES. A value given as a limit tells only on which side of the number the result lay.

For orientation: half-life means the time in which the quantity being followed falls by half. High values mean slow loss, low ones fast loss. For orientation: Ki means the equilibrium dissociation constant of an inhibitor or competing ligand from its target. A low value points to higher affinity. What is called Cmax is the peak of the concentration-time curve.

A short description of series [1]: Plasma half-life in rats. It is filed as ADME, organism-based. Particulars: rat.
The nature of series [2]: Biliary excretion when administered intravenously at a dose of 5 mg/kg in rats. Format: ADME, organism-based. Also on record: dose 5 mg/kg, route intravenous. The conditions noted are these: rat, bile, iv, read-out: Biliary excretion.
The target in series [3] is T1, Interstitial collagenase (Homo sapiens, UniProt P03956).
T1 sequence (P03956 whole entry): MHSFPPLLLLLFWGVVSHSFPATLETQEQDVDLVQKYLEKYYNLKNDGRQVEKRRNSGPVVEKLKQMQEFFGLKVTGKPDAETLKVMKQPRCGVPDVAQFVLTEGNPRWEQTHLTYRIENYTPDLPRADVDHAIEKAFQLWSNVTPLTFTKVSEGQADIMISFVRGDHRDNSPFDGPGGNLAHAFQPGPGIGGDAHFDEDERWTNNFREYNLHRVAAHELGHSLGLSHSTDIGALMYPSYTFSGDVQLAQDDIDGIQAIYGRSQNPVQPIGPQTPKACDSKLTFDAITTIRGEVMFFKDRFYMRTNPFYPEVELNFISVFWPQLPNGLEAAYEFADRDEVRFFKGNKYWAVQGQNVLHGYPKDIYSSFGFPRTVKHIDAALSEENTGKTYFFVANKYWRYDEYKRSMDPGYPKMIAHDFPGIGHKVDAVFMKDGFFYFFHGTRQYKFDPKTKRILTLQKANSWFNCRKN
Description: Evaluated for inhibitory activity against Human fibroblast collagenase (HFC).

A short description of series [4]: Maximum concentration in portal vein was determined at a concentration of 10 mg/kg in rats. It is filed as ADME, organism-based. Also on record: dose 10 mg/kg. The conditions noted are these: rat, portal vein blood.
Series [5] is described as follows: Plasma half-life was determined. Format: ADME, cell-free.
The species named for series [6] is Rattus norvegicus. Description: Plasma half-life in rats; <MQL. The conditions noted are these: in vivo. It is filed as ADME, organism-based.
A short description of series [7]: Biliary excretion when administered intravenously at a dose of 2.5 mg/kg in rats. Also on record: dose 2.5 mg/kg, route intravenous. Format: ADME, organism-based. Particulars: rat, bile, iv, read-out: Biliary excretion.
A short description of series [8]: Maximum concentration in portal vein was determined at a concentration of 20 mg/kg in rats. It is filed as ADME, organism-based. Also on record: dose 20 mg/kg. The conditions noted are these: rat, portal vein blood.

For `COc1ccc(C(=O)CCCCNC(=O)[C@H](Cc2c[nH]c3ccccc23)NC(=O)[C@@H](CC(=O)NO)CC(C)C)cc1`, the half-life in series [1] is 2.5 min. Moreover, in series [2], the dose excreted turned out to be 74.5%. For the same molecule, in series [3], affinity was put at a Ki of 2 nM.

In turn, `CC(C)C[C@H](CC(=O)NO)C(=O)N[C@@H](Cc1c[nH]c2ccccc12)C(=O)NCCCCOCc1ccccc1` came in with a half-life in series [1] of 27 min. In series [2], the dose excreted is 99.9%. This molecule had a Ki in series [3] of 2 nM.

In the case of `CSCCCNC(=O)[C@H](Cc1c[nH]c2ccccc12)NC(=O)[C@@H](CC(=O)NO)CC(C)C`, in series [1], the half-life was 37 min. For the same molecule, the dose excreted in series [2] worked out at 53%. This molecule also came in with a Ki in series [3] of 1 nM.

In series [1], `COCCNC(=O)[C@H](Cc1c[nH]c2ccccc12)NC(=O)[C@@H](CC(=O)NO)CC(C)C` registered a half-life of 19 min. Moreover, the dose excreted in series [2] is 59.2%. Also, the Ki in series [3] came out at 5 nM.

As for `CC(C)C[C@H](CC(=O)NO)C(=O)N[C@@H](Cc1c[nH]c2ccccc12)C(=O)NCCSCCN(C)C`, in series [4], the Cmax was 2800 ng/mL. In addition, in series [1], the half-life came to 43.7 min. Also, the dose excreted in series [2] stood at 60.8%. Further, the affinity in series [3], expressed as Ki, was 5 nM.

`CC(C)C[C@H](CC(=O)NO)C(=O)N[C@@H](Cc1c[nH]c2ccccc12)C(=O)NCC[S+](C)[O-]` (stereo not given in full) came in with a half-life in series [1] of 7.4 min. Also, in series [2], the dose excreted amounted to 44.8%. The molecule further displayed a Ki in series [3] of 2 nM.

Regarding `CSCCNC(=O)[C@H](Cc1c[nH]c2ccccc12)NC(=O)[C@@H](CC(=O)NO)CC(C)C`, the half-life in series [1] was found to be 32.4 min. In series [2], the dose excreted came to 27.3%. In addition, in series [3], the Ki worked out at 5 nM.

Take `CC(C)C[C@H](CC(=O)NO)C(=O)N[C@@H](Cc1c[nH]c2ccccc12)C(=O)NCCN(C)C`: the dose excreted in series [2] came to 18.9%. The molecule further displayed a half-life in series [5] of 21 min. This molecule also showed a Ki in series [3] of 12 nM.

`CC(C)C[C@H](CC(=O)NO)C(=O)N[C@@H](Cc1c[nH]c2ccccc12)C(=O)NCCS(N)(=O)=O`: the half-life in series [1] was found to be 17.6 min. Also, the dose excreted in series [2] came out at 61.3%. Further, in series [3], affinity was put at a Ki of 6 nM.

Take `CC(C)C[C@H](CC(=O)NO)C(=O)N[C@@H](Cc1c[nH]c2ccccc12)C(=O)NCc1ccc(CN(C)C)cc1`: the T1/2 result in series [6] is “<MQL”. For the same molecule, the dose excreted in series [7] worked out at 80.7%. The same molecule yielded a Ki in series [3] of 4 nM.

`CC(C)C[C@H](CC(=O)NO)C(=O)N[C@@H](Cc1c[nH]c2ccccc12)C(=O)NCCCCN(C)C`: the half-life in series [1] amounted to 26.6 min. In addition, the dose excreted in series [7] was found to be 17.9%. Moreover, in series [3], the Ki stood at 3 nM.

`CC(C)C[C@H](CC(=O)NO)C(=O)N[C@@H](Cc1c[nH]c2ccccc12)C(=O)NCCCCC(=O)O`: the half-life in series [1] worked out at 6.9 min. The dose excreted in series [2] is 108%. The molecule further displayed a Ki in series [3] of 1 nM.

`CC(C)C[C@H](CC(=O)NO)C(=O)N[C@@H](Cc1c[nH]c2ccccc12)C(=O)NCCS(C)(=O)=O` had a half-life in series [1] of 24 min. Besides, the dose excreted in series [2] stood at 67.2%. In series [3], this molecule came in with a Ki of 3 nM.

`CC(C)C[C@H](CC(=O)NO)C(=O)N[C@@H](Cc1c[nH]c2ccccc12)C(=O)NCCSCCN1CCOCC1` gave a half-life in series [1] of 42.5 min. In series [2], the dose excreted turned out to be 30.8%. In series [3], this molecule registered an inhibition constant Ki of 4 nM.

For `CCSCCNC(=O)[C@H](Cc1c[nH]c2ccccc12)NC(=O)[C@@H](CC(=O)NO)CC(C)C`, in series [8], the Cmax was determined as 900 ng/mL. The same molecule came in with a half-life in series [1] of 37.6 min. Also, the dose excreted in series [2] came to 46%. In addition, affinity in series [3] was put at a Ki of 3 nM.

Consider `CC(C)C[C@H](CC(=O)NO)C(=O)N[C@@H](Cc1c[nH]c2ccccc12)C(=O)NCCSc1ccccc1`, for which the half-life in series [1] was 33.3 min. Besides, the dose excreted in series [2] was determined as 43.9%. For the same molecule, the Ki in series [3] is 3 nM.

For `CC(C)C[C@H](CC(=O)NO)C(=O)N[C@@H](Cc1c[nH]c2ccccc12)C(=O)NCCCN(C)C`, in series [1], the half-life was 25 min. The dose excreted in series [2] amounted to 18.1%. The same molecule displayed a Ki in series [3] of 3 nM.

The molecule `CNC(=O)[C@H](Cc1ccc(OC)cc1)NC(=O)[C@@H](CC(=O)NO)CC(C)C` gave a half-life in series [1] of 9 min. For the same molecule, the dose excreted in series [2] turned out to be 84.1%.

For the origin of these results see ChEMBL document CHEMBL1128128, “Relationship between structure and bioavailability in a series of hydroxamate based metalloprotease inhibitors” (Bioorg Med Chem Lett, 1995).
